This is an account of results in PMC4579270, “Identification and Characterization of an Irreversible Inhibitor of CDK2” (Chemistry & Biology, 2015).

Read-outs that look alike come from different tables or passages of the source.

Common to all, as to type: biochemical
For one test, the target named is T1, PDK1 (Homo sapiens, UniProt O15530).
T1 sequence (O15530 1-556): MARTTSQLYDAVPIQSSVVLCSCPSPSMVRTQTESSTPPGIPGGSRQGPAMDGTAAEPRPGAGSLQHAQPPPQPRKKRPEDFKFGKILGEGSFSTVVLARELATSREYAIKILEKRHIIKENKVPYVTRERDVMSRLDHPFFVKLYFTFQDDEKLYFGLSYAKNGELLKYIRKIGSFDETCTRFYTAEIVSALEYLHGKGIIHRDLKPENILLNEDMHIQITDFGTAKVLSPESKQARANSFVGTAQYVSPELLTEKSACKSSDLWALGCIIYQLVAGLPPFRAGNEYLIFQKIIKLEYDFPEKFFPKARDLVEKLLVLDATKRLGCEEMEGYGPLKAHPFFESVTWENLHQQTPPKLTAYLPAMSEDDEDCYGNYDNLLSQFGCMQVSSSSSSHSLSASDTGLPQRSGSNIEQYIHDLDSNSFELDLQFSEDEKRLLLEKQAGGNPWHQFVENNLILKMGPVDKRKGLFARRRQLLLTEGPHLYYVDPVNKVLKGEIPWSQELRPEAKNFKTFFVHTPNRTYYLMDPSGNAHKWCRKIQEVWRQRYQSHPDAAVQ
The experiment in a line: Dundee kinase screen re-test (standard format and 4 hour pre-incubation). The conditions noted are these: PDK1, 0.5µM. A digest of the protocol: (§1)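 Selectivity panel of 131 protein kinases, inhibitor tested at a single concentration of 1 µM; values are % kinase activity remaining, mean of duplicates. Re-test of selected kinases used 0.5 µM in the standard format and again after a 4 hour pre-incubation with the inhibitor.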

The target in a further test is MLK3 (Homo sapiens, UniProt Q16584). The description is as above. The conditions noted are these: MLK3, 0.5µM. The essentials:
as §1

In a further test the target is JAK2 (Homo sapiens, UniProt O60674). The test is described as above. The conditions noted are these: JAK2, 0.5µM. A digest of the protocol: as §1
JAK2, sequence (O60674 whole entry): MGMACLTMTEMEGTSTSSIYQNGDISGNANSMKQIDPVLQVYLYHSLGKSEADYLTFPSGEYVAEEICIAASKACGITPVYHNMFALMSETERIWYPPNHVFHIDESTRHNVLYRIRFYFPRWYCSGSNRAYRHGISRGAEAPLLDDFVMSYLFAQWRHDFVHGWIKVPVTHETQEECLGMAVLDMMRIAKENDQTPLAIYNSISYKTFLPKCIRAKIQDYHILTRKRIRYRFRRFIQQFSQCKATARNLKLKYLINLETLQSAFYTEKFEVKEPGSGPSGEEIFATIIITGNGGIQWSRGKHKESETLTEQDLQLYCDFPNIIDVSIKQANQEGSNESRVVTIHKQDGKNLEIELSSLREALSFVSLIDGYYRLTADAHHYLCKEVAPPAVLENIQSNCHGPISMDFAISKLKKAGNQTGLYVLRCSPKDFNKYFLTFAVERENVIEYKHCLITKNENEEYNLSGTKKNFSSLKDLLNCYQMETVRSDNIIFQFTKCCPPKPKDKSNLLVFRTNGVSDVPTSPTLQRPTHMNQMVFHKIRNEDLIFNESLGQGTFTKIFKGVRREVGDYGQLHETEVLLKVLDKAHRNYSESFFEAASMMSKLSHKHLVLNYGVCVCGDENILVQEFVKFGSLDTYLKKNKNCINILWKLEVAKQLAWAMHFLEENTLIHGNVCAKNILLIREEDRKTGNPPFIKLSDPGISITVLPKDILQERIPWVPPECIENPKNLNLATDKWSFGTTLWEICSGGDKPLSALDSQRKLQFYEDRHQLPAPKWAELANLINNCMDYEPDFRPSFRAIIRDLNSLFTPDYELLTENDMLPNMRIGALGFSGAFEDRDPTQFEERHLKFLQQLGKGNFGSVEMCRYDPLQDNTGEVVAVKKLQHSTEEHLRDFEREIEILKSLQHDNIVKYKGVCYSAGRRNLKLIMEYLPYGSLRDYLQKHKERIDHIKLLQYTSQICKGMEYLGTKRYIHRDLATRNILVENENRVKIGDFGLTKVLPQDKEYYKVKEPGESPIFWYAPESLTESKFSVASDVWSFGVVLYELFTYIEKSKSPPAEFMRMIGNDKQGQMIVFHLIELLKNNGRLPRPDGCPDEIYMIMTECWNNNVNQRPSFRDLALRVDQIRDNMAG
In another test the target is T2, MARK4 (Homo sapiens, UniProt Q96L34).
T2 sequence (Q96L34 1-752): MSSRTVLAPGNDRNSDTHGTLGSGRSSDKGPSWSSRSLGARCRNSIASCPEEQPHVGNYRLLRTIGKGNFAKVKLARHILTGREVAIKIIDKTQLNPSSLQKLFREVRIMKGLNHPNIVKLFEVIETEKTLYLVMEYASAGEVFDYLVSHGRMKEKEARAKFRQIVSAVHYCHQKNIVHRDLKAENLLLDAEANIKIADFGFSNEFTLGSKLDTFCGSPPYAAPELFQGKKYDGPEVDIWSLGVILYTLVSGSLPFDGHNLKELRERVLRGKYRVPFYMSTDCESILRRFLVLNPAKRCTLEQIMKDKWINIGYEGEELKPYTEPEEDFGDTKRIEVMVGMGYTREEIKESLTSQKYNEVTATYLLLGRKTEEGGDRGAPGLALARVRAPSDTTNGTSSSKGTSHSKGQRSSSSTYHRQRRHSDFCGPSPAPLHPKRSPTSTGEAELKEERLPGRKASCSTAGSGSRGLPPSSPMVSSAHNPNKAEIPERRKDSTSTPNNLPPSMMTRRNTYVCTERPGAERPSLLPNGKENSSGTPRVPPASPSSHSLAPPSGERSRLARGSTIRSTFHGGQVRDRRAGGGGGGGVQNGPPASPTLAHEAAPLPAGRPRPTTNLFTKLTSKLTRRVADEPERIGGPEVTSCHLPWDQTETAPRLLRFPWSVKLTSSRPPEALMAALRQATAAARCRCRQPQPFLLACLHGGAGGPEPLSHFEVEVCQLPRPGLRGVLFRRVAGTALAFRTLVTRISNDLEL
Described as above. The conditions noted are these: MARK4, 0.5µM. A digest of the protocol: as §1

Another test addresses CDK2-Cyclin A (Homo sapiens, UniProt P24941). The test can be described thus: Dundee protein kinase screen. The conditions noted are these: read-out: %Remaining activity at 1µM NU6300. Here is the method: (§2) Prior to determining its cellular activity, we carried out a screen to assess its selectivity against a panel of 131 protein kinases under conditions that would not distinguish between a reversible or irreversible mode of action. […] These 13 kinases and 29 additional kinases, selected for their known sensitivity to other inhibitors within the purine series, were then tested in a modified screening format in which the assay was repeated following a 4-hr pre-incubation (Table S3B). […] However, conformational flexibility around the active site may promote such an interaction with a residue from another part of the structure ([Martin et al., 2012]).
(§3) Table S3, Related to Figure 4. NCL-0006300 protein kinase selectivity. (A) NU6300 was tested at a single concentration of 1µM against 131 protein kinases present in a Dundee protein kinase screen (Bain et al., 2007). Values given are % activity remaining and are the average of duplicate measurements: 0-25% (red), 26-50% (yellow), 51-80% (black) and above 81% (green). The kinase domain sequences (as defined by UniProt) of […]
(§4) have a lysine residue at a position close to CDK2 Lys88 or Lys89. However, in the structure of tyrosine-protein kinase BTK (PDB ID: 3GEN) the residue equivalent to CDK2 Asp86 is Cys481 and therefore there is the potential for a covalent adduct to be formed through this side chain. […]

The target in another test is JNK3 (Homo sapiens, UniProt P53779). The experiment in a line: Dundee protein kinase screen. The conditions noted are these: JNK3, 1µM; read-out: %Remaining activity at 1µM NU6300. The method, then:
as §2, §3, §4

A further test deals with CLK2 (Homo sapiens, UniProt P49760). The experiment in a line: Dundee protein kinase screen. The conditions noted are these: CLK2, 1µM; read-out: %Remaining activity at 1µM NU6300. Here is the method: as §2, §3, §4
CLK2, sequence (P49760 whole entry): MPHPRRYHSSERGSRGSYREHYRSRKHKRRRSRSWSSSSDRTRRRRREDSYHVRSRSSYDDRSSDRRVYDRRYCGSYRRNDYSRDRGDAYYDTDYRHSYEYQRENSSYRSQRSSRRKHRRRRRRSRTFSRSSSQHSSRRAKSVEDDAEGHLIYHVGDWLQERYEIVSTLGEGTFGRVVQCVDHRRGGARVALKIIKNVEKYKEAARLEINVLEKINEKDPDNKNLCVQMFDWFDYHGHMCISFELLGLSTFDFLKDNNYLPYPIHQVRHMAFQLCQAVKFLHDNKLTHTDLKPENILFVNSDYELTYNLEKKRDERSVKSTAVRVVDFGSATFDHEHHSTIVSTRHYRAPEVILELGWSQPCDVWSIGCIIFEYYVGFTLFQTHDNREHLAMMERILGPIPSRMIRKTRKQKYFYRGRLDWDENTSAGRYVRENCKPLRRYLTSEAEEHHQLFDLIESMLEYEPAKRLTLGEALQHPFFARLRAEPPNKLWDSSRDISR
A further test concerns the target CDK2 (Homo sapiens, UniProt P24941). The experiment in a line: CDK2 kinase inhibition assay. The conditions noted are these: read-out: CDK2 median inhibitory concentration [IC50]. Here is the method:
CDK2/cyclin A kinase assays were carried out using a method modified from [Brown et al. (1999)] or by using the ADP-Glo assay (Promega) essentially as described by the manufacturers. A full description of the assay formats is provided in the Supplemental Experimental Procedures.

Setting [1] is: 4hr RT preincubation, read-out: %Remaining activity at 0.5µM NU6300 - 4hr RT preincubation.
The mark [2] stands for this setting: usual format, read-out: %Remaining activity at 0.5µM NU6300 - Usual assay format.

MLK3, sequence (Q16584 whole entry): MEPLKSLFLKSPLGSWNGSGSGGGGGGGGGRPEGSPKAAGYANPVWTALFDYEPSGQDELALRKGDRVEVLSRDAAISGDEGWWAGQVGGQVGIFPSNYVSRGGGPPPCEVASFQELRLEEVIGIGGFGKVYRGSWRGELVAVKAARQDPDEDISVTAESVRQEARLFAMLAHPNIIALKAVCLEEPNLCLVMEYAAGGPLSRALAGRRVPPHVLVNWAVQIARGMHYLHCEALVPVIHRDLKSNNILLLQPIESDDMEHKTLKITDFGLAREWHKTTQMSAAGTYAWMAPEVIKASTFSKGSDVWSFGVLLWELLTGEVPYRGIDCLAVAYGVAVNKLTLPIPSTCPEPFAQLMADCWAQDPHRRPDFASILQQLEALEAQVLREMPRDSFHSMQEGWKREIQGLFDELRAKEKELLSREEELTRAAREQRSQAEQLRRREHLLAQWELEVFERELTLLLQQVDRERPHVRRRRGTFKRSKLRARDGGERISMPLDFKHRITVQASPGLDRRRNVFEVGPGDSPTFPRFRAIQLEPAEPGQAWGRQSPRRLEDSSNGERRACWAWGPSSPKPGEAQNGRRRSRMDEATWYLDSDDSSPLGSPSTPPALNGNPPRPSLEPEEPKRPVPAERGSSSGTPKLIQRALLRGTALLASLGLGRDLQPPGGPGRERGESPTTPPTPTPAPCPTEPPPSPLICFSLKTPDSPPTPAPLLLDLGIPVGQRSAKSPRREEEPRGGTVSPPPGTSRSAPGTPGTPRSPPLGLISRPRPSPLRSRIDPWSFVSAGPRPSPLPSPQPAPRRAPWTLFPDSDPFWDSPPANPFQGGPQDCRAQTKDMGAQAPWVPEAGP
JNK3, sequence (P53779 whole entry): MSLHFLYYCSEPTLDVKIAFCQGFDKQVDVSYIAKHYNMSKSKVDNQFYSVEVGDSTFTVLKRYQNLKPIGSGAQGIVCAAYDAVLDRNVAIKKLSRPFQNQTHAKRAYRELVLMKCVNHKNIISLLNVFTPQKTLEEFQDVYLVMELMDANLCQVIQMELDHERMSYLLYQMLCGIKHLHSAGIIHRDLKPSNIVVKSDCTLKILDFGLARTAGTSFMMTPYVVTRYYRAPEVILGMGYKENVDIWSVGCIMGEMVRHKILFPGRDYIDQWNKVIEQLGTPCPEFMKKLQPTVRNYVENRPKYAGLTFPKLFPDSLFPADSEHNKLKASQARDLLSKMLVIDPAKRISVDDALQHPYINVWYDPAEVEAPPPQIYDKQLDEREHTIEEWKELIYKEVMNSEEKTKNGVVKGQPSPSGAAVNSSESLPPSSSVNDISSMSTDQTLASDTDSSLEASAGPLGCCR

For the compound `C=CS(=O)(=O)c1ccc(Nc2nc(OCC3CCCCC3)c3nc[nH]c3n2)cc1` [NU6300, 6-(cyclohexylmethoxy)-N-(4-(vinylsulfonyl)phenyl)-9H-purin-2-amine], the remaining activity (commonly the activity still measured, relative to the control) at 0.5 µM on PDK1 (setting [1]) came to 40%; on PDK1 (setting [2]), 29%; at MLK3 (setting [1]), 52%; on MLK3 (setting [2]) it was 5%; on JAK2 (setting [1]), 7%; on JAK2 (setting [2]), 9%. The figures for the remaining activity at 0.5 µM at MARK4 (setting [1]) and at MARK4 (setting [2]) were 52% and 47%, respectively. Moreover, the remaining activity at 1 µM is 27% at CDK2-Cyclin A, 37% on JNK3 and 27% at CLK2.

As for `CCS(=O)(=O)c1ccc(Nc2nc(OCC3CCCCC3)c3nc[nH]c3n2)cc1` [NU6310, 6-(cyclohexylmethoxy)-N-(4-(ethylsulfonyl)phenyl)-9H-purin-2-amine], on CDK2, the IC50 turned out to be 160 nM.
